Experimental findings from US8735414B2 (priority 2009, dated 2014) are described below.

Data set [1] deals with bicistronic HCV replicon (replicon RNA, GenBank Accession No. AJ242654). Put plainly: HCV Replicon Assay. Type of data set: cell-based. Conditions: Hepatitis C virus, 72 h, read-out: Replicon IC50. (In general: A replicon is a self-replicating genome or part of one, used to study replication in cells.)

Bounds are passed on as bounds.

The melting point is the temperature of the solid-liquid transition. The term IC50 denotes the point on the concentration scale where inhibition reaches its midpoint. `Cc1c(F)cc2c(c1F)c(C#N)c(-c1ccc(S(=O)(=O)N[C@@H](C)C(F)(F)F)cn1)n2C1CCCC1` [compound 559, 6-(3-cyano-1-cyclopentyl-4,6-difluoro-5-methyl-1H-indol-2-yl)-N-[(2S)-1,1,1-trifluoropropan-2-yl]pyridine-3-sulfonamide] returned a melting point of 218 to 224 °C. Moreover, the IC50 in data set [1] was less than 500 nM.
`Cc1ccc2c(c1)c(C#N)c(-c1ccc(S(=O)(=O)N[C@@H](C)C(F)(F)F)cn1)n2C1CCCCC1` [compound 560, 6-(3-cyano-1-cyclohexyl-5-methyl-1H-indol-2-yl)-N-[(2S)-1,1,1-trifluoropropan-2-yl]pyridine-3-sulfonamide]: the melting point was 175 to 180 °C. Also, the IC50 in data set [1] is less than 500 nM.
Molecule `Cc1ccc2c(c1)c(C#N)c(-c1ncc(S(=O)(=O)N[C@@H](C)C3CC3)cn1)n2CC1CC1` [compound 561, 2-[3-cyano-1-(cyclopropylmethyl)-5-methyl-1H-indol-2-yl]-N-[(1S)-1-cyclopropylethyl]pyrimidine-5-sulfonamide] gave a melting point of 174 to 178 °C. Moreover, the IC50 in data set [1] is 500 to 2000 nM.
Molecule `Cc1ccc2c(c1)c(C#N)c(-c1ncc(S(=O)(=O)N[C@@H](C)C3CC3)cn1)n2C1CCCC1` [compound 562, 2-(3-cyano-1-cyclopentyl-5-methyl-1H-indol-2-yl)-N-[(1S)-1-cyclopropylethyl]pyrimidine-5-sulfonamide] displayed a melting point of 168 to 171 °C. Moreover, the IC50 in data set [1] is less than 500 nM.
Consider `Cc1ccc2c(c1)c(C#N)c(-c1ncc(S(=O)(=O)N[C@@H](C)C3CC3)cn1)n2C(C)C` [compound 563, 2-[3-cyano-5-methyl-1-(propan-2-yl)-1H-indol-2-yl]-N-[(1S)-1-cyclopropylethyl]pyrimidine-5-sulfonamide], for which the melting point is 171 to 174 °C. For the same molecule, the IC50 in data set [1] lay within 500 to 2000 nM.
`Cc1ccc2c(c1)c(C#N)c(-c1ccc(S(=O)(=O)N[C@@H](C)C3CC3)cn1)n2C(C)C` [compound 564, 6-[3-cyano-5-methyl-1-(propan-2-yl)-1H-indol-2-yl]-N-[(1S)-1-cyclopropylethyl]pyridine-3-sulfonamide] had a melting point of 170 to 173 °C. The IC50 in data set [1] was less than 500 nM.
Molecule `Cc1ccc2c(c1)c(C#N)c(-c1ncc(S(=O)(=O)NC(C)C)cn1)n2C(C)C` [compound 565, 2-[3-cyano-5-methyl-1-(propan-2-yl)-1H-indol-2-yl]-N-(propan-2-yl)pyrimidine-5-sulfonamide] showed a melting point of 175 to 177 °C. The IC50 in data set [1] is less than 500 nM.
Regarding `Cc1ccc2c(c1)c(C#N)c(-c1ncc(S(=O)(=O)N[C@@H](C)C(F)(F)F)cn1)n2C(C)C` [compound 566, 2-[3-cyano-5-methyl-1-(propan-2-yl)-1H-indol-2-yl]-N-[(2S)-1,1,1-trifluoropropan-2-yl]pyrimidine-5-sulfonamide], the melting point lay in the range of 195 to 198 °C. Moreover, the half-inhibitory concentration (IC50) in data set [1] was in the range of 500 to 2000 nM.
Molecule `Cc1ccc2c(c1)c(C#N)c(-c1ncc(S(=O)(=O)NC(CF)CF)cn1)n2C(C)C` [compound 567, 2-[3-cyano-5-methyl-1-(propan-2-yl)-1H-indol-2-yl]-N-(1,3-difluoropropan-2-yl)pyrimidine-5-sulfonamide] yielded a melting point of 160 to 163 °C. For the same molecule, the IC50 in data set [1] is less than 500 nM.
In turn, `NC(=O)c1c(-c2ccc(S(N)(=O)=O)cn2)n(C2CCC2)c2cc(OC(F)F)ccc12` [compound 568, 1-cyclobutyl-6-(difluoromethoxy)-2-(5-sulfamoylpyridin-2-yl)-1H-indole-3-carboxamide] came in with a melting point of 230 to 231 °C. For the same molecule, the IC50 in data set [1] lay within 2000 to 5000 nM.
With `COc1ccc2c(c1)c(C#N)c(-c1ncc(S(=O)(=O)N[C@@H](C)C(F)(F)F)cn1)n2C1CCC1` [compound 569, 2-(3-cyano-1-cyclobutyl-5-methoxy-1H-indol-2-yl)-N-[(2S)-1,1,1-trifluoropropan-2-yl]pyrimidine-5-sulfonamide], the melting point was 203 to 205 °C. Besides, the IC50 in data set [1] lay in the range of 500 to 2000 nM.
Molecule `COc1ccc2c(c1)c(C#N)c(-c1ncc(S(=O)(=O)N[C@@H](C)C3CC3)cn1)n2C1CCC1` [compound 570, 2-(3-cyano-1-cyclobutyl-5-methoxy-1H-indol-2-yl)-N-[(1S)-1-cyclopropylethyl]pyrimidine-5-sulfonamide] yielded a melting point of 182 to 183 °C. For the same molecule, the IC50 in data set [1] is 500 to 2000 nM.
In turn, `COc1ccc2c(c1)c(C#N)c(-c1ccc(S(=O)(=O)NC(CF)CF)cn1)n2C1CCCC1` [compound 571, 6-(3-cyano-1-cyclopentyl-5-methoxy-1H-indol-2-yl)-N-(1,3-difluoropropan-2-yl)pyridine-3-sulfonamide] returned a melting point of 167 to 169 °C. Besides, in data set [1], the IC50 was less than 500 nM.
Turning to `COc1ccc2c(c1)c(C#N)c(-c1ncc(S(=O)(=O)NC(CF)CF)cn1)n2C1CCCC1` [compound 572, 2-(3-cyano-1-cyclopentyl-5-methoxy-1H-indol-2-yl)-N-(1,3-difluoropropan-2-yl)pyrimidine-5-sulfonamide], the melting point was 200 to 202 °C. Moreover, the IC50 in data set [1] is less than 500 nM.
For `N#Cc1c(-c2ccc(S(=O)(=O)NC(CF)CF)cn2)n(C2CCCC2)c2cc(OC(F)F)c(F)cc12` [compound 573, 6-[3-cyano-1-cyclopentyl-6-(difluoromethoxy)-5-fluoro-1H-indol-2-yl]-N-(1,3-difluoropropan-2-yl)pyridine-3-sulfonamide], in that order: 190 to 194 °C and less than 500 nM.
In turn, `C[C@H](NS(=O)(=O)c1ccc(-c2c(C#N)c3cc(F)c(OC(F)F)cc3n2C2CCCC2)nc1)C(F)(F)F` [compound 574, 6-[3-cyano-1-cyclopentyl-6-(difluoromethoxy)-5-fluoro-1H-indol-2-yl]-N-[(2S)-1,1,1-trifluoropropan-2-yl]pyridine-3-sulfonamide] had a melting point of 181 to 184 °C. In addition, the IC50 in data set [1] was less than 500 nM.
On to `C[C@H](NS(=O)(=O)c1ccc(-c2c(C#N)c3cc(F)c(O)cc3n2C2CCCC2)nc1)C(F)(F)F` [compound 576, 6-(3-cyano-1-cyclopentyl-5-fluoro-6-hydroxy-1H-indol-2-yl)-N-[(2S)-1,1,1-trifluoropropan-2-yl]pyridine-3-sulfonamide], for which the melting point lay in the range of 214 to 216 °C. In addition, the IC50 in data set [1] is less than 500 nM.
For `Cc1c(F)cc2c(C#N)c(-c3ccc(S(=O)(=O)NC(C)(C)C(F)(F)F)cn3)n(C3CCC3)c2c1F` [compound 577, 6-(3-cyano-1-cyclobutyl-5,7-difluoro-6-methyl-1H-indol-2-yl)-N-(1,1,1-trifluoro-2-methylpropan-2-yl)pyridine-3-sulfonamide], in that order: 180 to 187 °C and less than 500 nM.
Take `Cc1ccc2c(C#N)c(-c3ccc(S(=O)(=O)NC(C)(C)C(F)(F)F)cn3)n(C3CCC3)c2c1F` [compound 578, 6-(3-cyano-1-cyclobutyl-7-fluoro-6-methyl-1H-indol-2-yl)-N-(1,1,1-trifluoro-2-methylpropan-2-yl)pyridine-3-sulfonamide]: the melting point lay within 168 to 175 °C. The IC50 in data set [1] was less than 500 nM.
Taken in the same sequence, the figures for `Cc1ccc2c(C#N)c(-c3ccc(S(=O)(=O)NC(C)(C)C(F)(F)F)cn3)n(C3CCCC3)c2c1F` [compound 579, 6-(3-cyano-1-cyclopentyl-7-fluoro-6-methyl-1H-indol-2-yl)-N-(1,1,1-trifluoro-2-methylpropan-2-yl)pyridine-3-sulfonamide] were 203 to 205 °C and less than 500 nM.
In turn, `Cc1c(F)cc2c(C#N)c(-c3ccc(S(=O)(=O)NC(C)(C)C(F)(F)F)cn3)n(C3CCCC3)c2c1F` [compound 580, 6-(3-cyano-1-cyclopentyl-5,7-difluoro-6-methyl-1H-indol-2-yl)-N-(1,1,1-trifluoro-2-methylpropan-2-yl)pyridine-3-sulfonamide] gave a melting point of 226 to 232 °C. For the same molecule, in data set [1], the IC50 is less than 500 nM.
In turn, `NC(=O)c1c(-c2ccc(S(=O)(=O)NC(CF)CF)cn2)n(C2CCC2)c2cc(OC(F)F)ccc12` [compound 581, 1-cyclobutyl-6-(difluoromethoxy)-2-{5-[(1,3-difluoropropan-2-yl)sulfamoyl]pyridin-2-yl}-1H-indole-3-carboxamide] showed a melting point of 211 to 213 °C. The half-inhibitory concentration (IC50) in data set [1] was less than 500 nM.
The molecule `CC(C)(NS(=O)(=O)c1ccc(-c2c(C#N)c3ccc(OC(F)F)cc3n2-c2ccccn2)nc1)C(F)(F)F` [compound 583, 6-[3-cyano-6-(difluoromethoxy)-1-(pyridin-2-yl)-1H-indol-2-yl]-N-(1,1,1-trifluoro-2-methylpropan-2-yl)pyridine-3-sulfonamide] showed a melting point of 170 to 173 °C. For the same molecule, in data set [1], the IC50 was less than 500 nM.
For `Cc1ccc2c(C#N)c(-c3ccc(S(=O)(=O)NC(C)(C)C(F)(F)F)cn3)n(-c3ccccc3)c2c1` [compound 585, 6-(3-cyano-6-methyl-1-phenyl-1H-indol-2-yl)-N-(1,1,1-trifluoro-2-methylpropan-2-yl)pyridine-3-sulfonamide], in that order: 210 to 212 °C and less than 500 nM.
`Cc1ccc2c(C#N)c(-c3ncc(S(=O)(=O)NC(CF)CF)cn3)n(C3CCCC3)c2c1F` [compound 586, 2-(3-cyano-1-cyclopentyl-7-fluoro-6-methyl-1H-indol-2-yl)-N-(1,3-difluoropropan-2-yl)pyrimidine-5-sulfonamide]: the melting point was in the range of 226 to 232 °C. The IC50 in data set [1] is less than 500 nM.
Taken in the same sequence, the figures for `Cc1ccc2c(C#N)c(-c3ccc(S(=O)(=O)NC4(C(F)(F)F)CCC4)cn3)n(C3CCC3)c2c1` [compound 587, 6-(3-cyano-1-cyclobutyl-6-methyl-1H-indol-2-yl)-N-[1-(trifluoromethyl)cyclobutyl]pyridine-3-sulfonamide] were 228 to 232 °C and less than 500 nM.
`N#Cc1c(-c2ccc(S(=O)(=O)NC3(C(F)(F)F)CCC3)cn2)n(C2CCCC2)c2cc(OC(F)F)ccc12` [compound 588, 6-[3-cyano-1-cyclopentyl-6-(difluoromethoxy)-1H-indol-2-yl]-N-[1-(trifluoromethyl)cyclobutyl]pyridine-3-sulfonamide] showed a melting point of 172 to 176 °C. For the same molecule, the IC50 in data set [1] is less than 500 nM.
